The values that follow come from ChEMBL document CHEMBL4138296, “Nonacidic Chemotype Possessing N-Acylated Piperidine Moiety as Potent Farnesoid X Receptor (FXR) Antagonists” (ACS Med Chem Lett, 2018).

Molecules are shown by their SMILES. Activity calls are given as the source filed them. No cut-off for these calls is given here.

Assay [1] deals with 3T3-L1. Kind of assay: Antiadipogenic activity in mouse 3T3L1 cells assessed as inhibition of CDCA-induced intracellular lipid droplets after 6 days by Oil Red O staining based assay. Type of assay: functional, cell-based.
Assay [2] has as its system 3T3-L1. Nature of the assay: Antiadipogenic activity in mouse 3T3L1 cells assessed as reduction in intracellular lipid droplets at 10 uM after 6 days by Oil Red O staining based assay. Type of assay: functional, cell-based.
A further assay has as its system Hep 3B2. Kind of assay: Cytotoxicity against human Hep3B cells assessed as reduction in cell viability by MTT assay. Type of assay: functional, cell-based. On the technique in general: Formazan colour is commonly taken as a measure of viable cells.
Assay [3] addresses T1, Bile acid receptor (Homo sapiens, UniProt Q96RI1).
T1 sequence (Q96RI1 whole entry): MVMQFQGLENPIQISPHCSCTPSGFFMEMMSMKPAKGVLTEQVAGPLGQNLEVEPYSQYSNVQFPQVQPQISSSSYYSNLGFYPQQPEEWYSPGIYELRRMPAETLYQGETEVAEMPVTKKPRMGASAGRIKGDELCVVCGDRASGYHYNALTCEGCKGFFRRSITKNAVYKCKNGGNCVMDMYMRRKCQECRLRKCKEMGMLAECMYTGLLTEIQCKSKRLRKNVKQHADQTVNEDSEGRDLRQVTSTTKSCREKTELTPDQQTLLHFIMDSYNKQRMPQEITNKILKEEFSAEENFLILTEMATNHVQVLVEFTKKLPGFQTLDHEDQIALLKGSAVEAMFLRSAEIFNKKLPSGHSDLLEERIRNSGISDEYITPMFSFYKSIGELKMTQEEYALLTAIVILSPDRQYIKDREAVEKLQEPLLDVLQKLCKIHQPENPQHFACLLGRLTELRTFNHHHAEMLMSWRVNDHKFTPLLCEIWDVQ
Kind of assay: Antagonist activity at human FXR expressed in Hep3B cells assessed as inhibition of CDCA-induced FXR response element driven luciferase activity after 24 hrs. Type of assay: cell-based.

Assay [4] deals with T1, Bile acid receptor. Kind of assay: Antagonist activity at GST-tagged FXR LBD (unknown origin) assessed as inhibition of GW4064-induced fluorecein-labeled SRC2-2 coactivator recruitment by Lanthascreen TR-FRET assay. On the technique in general: Time-resolved FRET reads energy transfer from a long-lived donor to a nearby acceptor.

Turning to `C/C=C1/C(=O)C[C@H]2[C@@H]3CCC4=CC(=O)CC[C@]4(C)[C@H]3CC[C@]12C`, in the assay on 3T3-L1 [1], the inhibition result is “Dose-dependent effect”. The outcome with 3T3-L1 [2] was Active.

With `CC(C)C(=O)N1CCC(C[C@@H](c2nc3ccc(Cl)cc3n2C)N2C(=O)CN(c3ccc(Oc4ccccc4)cc3)C2=O)CC1`, the IC50 in the assay with Hep 3B2 is above 100000 nM; on Bile acid receptor [3], 0.05 nM; on Bile acid receptor [4], 130 nM.

Take `CC(=O)N1CCC(C[C@@H](c2nc3ccc(C)cc3n2C)N2C(=O)CN(c3ccc(Oc4ccccc4)cc3)C2=O)CC1`: the figures for the IC50 in the assay on Hep 3B2, on Bile acid receptor [3] and on Bile acid receptor [4] were 17200 nM, 0.2 nM and 1300 nM, respectively.

Regarding `Cc1ccc2nc([C@H](CC3CCN(C(=O)C4CCCC4)CC3)N3C(=O)CN(c4ccc(Oc5ccccc5)cc4)C3=O)n(C)c2c1`, the values for the IC50 in the assay on Hep 3B2, at Bile acid receptor [3] and on Bile acid receptor [4] were above 100000 nM, 0.006 nM and 30 nM, respectively.

In the case of `Cc1ccc2nc([C@H](CC3CCN(CC(C)C)CC3)N3C(=O)CN(c4ccc(Oc5ccccc5)cc4)C3=O)n(C)c2c1`, the IC50 in the assay with Hep 3B2 was 6900 nM; on Bile acid receptor [3] it was 17400 nM; on Bile acid receptor [4] it was 16400 nM.

As to `Cc1ccc2nc([C@H](CC3CCNCC3)N3C(=O)CN(c4ccc(Oc5ccccc5)cc4)C3=O)n(C)c2c1`, the concentration for half-maximal inhibition (IC50) in the assay on Hep 3B2 came out at 16700 nM; on Bile acid receptor [3] it was 4510 nM; on Bile acid receptor [4] it was 64000 nM.

`CC(=O)N1CCC(C[C@@H](c2nc3ccc(Cl)cc3n2C)N2C(=O)CN(c3ccc(Oc4ccccc4)cc3)C2=O)CC1`: the IC50 was above 100000 nM in the assay with Hep 3B2, 0.8 nM at Bile acid receptor [3] and 3500 nM on Bile acid receptor [4].

As to `CC(C)C(=O)N1CCC(C[C@@H](c2nc3ccccc3n2C)N2C(=O)CN(c3ccc(Oc4ccccc4)cc3)C2=O)CC1`, the values for the IC50 in the assay with Hep 3B2, at Bile acid receptor [3] and at Bile acid receptor [4] were above 100000 nM, below 0.001 nM and 38 nM, respectively.

`CC(=O)N1CCC(C[C@@H](c2nc3cc(F)ccc3n2C)N2C(=O)CN(c3ccc(Oc4ccccc4)cc3)C2=O)CC1`: the IC50 with Hep 3B2 is above 100000 nM; at Bile acid receptor [3], 1 nM; at Bile acid receptor [4], 8300 nM.

Take `CC(C)C(=O)N1CCC(C[C@@H](c2nc3cc(F)ccc3n2C)N2C(=O)CN(c3ccc(Oc4ccccc4)cc3)C2=O)CC1`: the IC50 was above 100000 nM in the assay on Hep 3B2, 0.06 nM at Bile acid receptor [3] and 340 nM on Bile acid receptor [4].

With `CC(=O)N1CCC(C[C@@H](c2nc3ccccc3n2C)N2C(=O)CN(c3ccc(Oc4ccccc4)cc3)C2=O)CC1`, the IC50 was 32100 nM in the assay on Hep 3B2, 0.002 nM at Bile acid receptor [3] and 740 nM at Bile acid receptor [4].

One may read the IC50 as the point on the concentration scale where inhibition reaches its midpoint.
